From ChEMBL document CHEMBL3351946, “Design and synthesis of potent antitumor water-soluble phenyl N-mustard-benzenealkylamide conjugates via a bioisostere approach” (Eur J Med Chem, 2014)
Activity calls are given as the source filed them. The rule behind the calls is not given here.

Experiments:
CCRF-CEM [1] = test: Cytotoxicity against vinblastine-resistant human CCRF-CEM cells assessed as growth inhibition after 72 hrs by Alamar Blue assay; assay type: functional, cell-based
[2] = Cytotoxicity against human PC3 cells assessed as growth inhibition after 72 hrs by Alamar Blue assay; assay type: functional, cell-based; conditions: PC-3, 72 h
HT-29 = test: Cytotoxicity against human HT-29 cells assessed as growth inhibition after 72 hrs by Alamar Blue assay; assay type: functional, cell-based; conditions: HT-29, 72 h
[3] = Cytotoxicity against human H460 cells assessed as growth inhibition after 72 hrs by Alamar Blue assay; assay type: functional, cell-based; conditions: NCI-H460, 72 h
[4] = Cytotoxicity against human H1299 cells assessed as growth inhibition after 72 hrs by Alamar Blue assay; assay type: functional, cell-based; conditions: NCI-H1299, 72 h
[5] = Cytotoxicity against human HCT116 cells assessed as growth inhibition after 72 hrs by Alamar Blue assay; assay type: functional, cell-based; conditions: HCT-116, 72 h
[6] = Cytotoxicity against human H3347 cells assessed as growth inhibition after 72 hrs by Alamar Blue assay; assay type: functional, cell-based; conditions: H3347, 72 h
[7] = Cytotoxicity against human DLD1 cells assessed as growth inhibition after 72 hrs by Alamar Blue assay; assay type: functional, cell-based; conditions: DLD-1, 72 h
[8] = Antitumor activity against human HCT116 cells xenografted in nude mouse assessed as tumor growth inhibition at 30 mg/kg,iv qd administered for 6 days measured on day 15 relative to control; assay type: functional, HCT-116
[9] = Antitumor activity against human H3347 cells xenografted in nude mouse assessed as tumor growth inhibition at 30 mg/kg,iv qd administered for 6 days measured on day 16 relative to control; assay type: functional
[10] = Antitumor activity against human H3347 cells xenografted in nude mouse assessed as tumor growth inhibition at 30 mg/kg,iv qd administered for 6 days measured on day 31 relative to control; assay type: functional; conditions: read-out: TGI
[11] = Antitumor activity against human HCT116 cells xenografted in nude mouse assessed as tumor growth inhibition at 30 mg/kg,iv qd administered for 6 days measured on day 31 relative to control; assay type: functional; conditions: HCT-116, iv, read-out: TGI
Mus musculus [12] = test: Toxicity in nude mouse xenografted with human HCT116 cells assessed as body weight loss at 30 mg/kg,iv qd administered for 6 days measured on day 13 relative to control; assay type: organism-based, HCT-116; parameters: dose 30 mg/kg; conditions: in vivo, 144 h
Mus musculus [13] = test: Toxicity in nude mouse xenografted with human H3347 cells assessed as body weight loss at 30 mg/kg,iv qd administered for 6 days; assay type: organism-based; parameters: dose 30 mg/kg; conditions: in vivo, 144 h
Mus musculus [14] = test: Toxicity in nude mouse xenografted with human HCT116 cells assessed as change in body weight at 30 mg/kg,iv qd administered for 6 days measured on day 31 relative to control; assay type: organism-based, HCT-116; parameters: dose 30 mg/kg; conditions: in vivo, 144 h
Mus musculus [15] = test: Toxicity in nude mouse xenografted with human H3347 cells assessed as change in body weight at 30 mg/kg,iv qd administered for 6 days measured on day 31 relative to control; assay type: organism-based; parameters: dose 30 mg/kg; conditions: in vivo, 144 h
HCT-116 = test: Antitumor activity against human HCT116 cells xenografted in nude mouse assessed as survival at 30 mg/kg,iv qd administered for 6 days; assay type: functional, organism-based; parameters: dose 30 mg/kg
H3347 = test: Antitumor activity against human H3347 cells xenografted in nude mouse assessed as survival at 30 mg/kg,iv qd administered for 6 days; assay type: functional, organism-based; parameters: dose 30 mg/kg
CCRF-CEM [16] = test: Cytotoxicity against human CCRF-CEM cells assessed as growth inhibition after 72 hrs by Alamar Blue assay; assay type: functional, cell-based
CCRF-CEM [17] = test: Resistance factor, ratio of IC50 for vinblastine-resistant human CCRF-CEM cells to IC50 for human CCRF-CEM cells; assay type: functional
[18] = Antitumor activity against human HCT116 cells xenografted in nude mouse assessed as tumor growth inhibition at 30 mg/kg,iv qd administered for 6 days measured on day 13 relative to control; assay type: functional, HCT-116
[19] = Antitumor activity against human HCT116 cells xenografted in nude mouse assessed as tumor growth inhibition at 30 mg/kg,iv qd administered for 6 days measured on day 30 relative to control; assay type: functional; conditions: HCT-116, iv, read-out: TGI
Mus musculus [20] = test: Toxicity in nude mouse xenografted with human HCT116 cells assessed as change in body weight at 30 mg/kg,iv qd administered for 6 days measured on day 30 relative to control; assay type: organism-based, HCT-116; parameters: dose 30 mg/kg; conditions: in vivo, 144 h
[21] = Induction of pEGFP-N1 DNA (unknown origin) interstand crosslinking after 2 hrs by alkaline agarose gel shift assay
[22] = Toxicity in mouse; assay type: organism-based; conditions: in vivo
[23] = Acute toxicity in iv dosed mouse administered for 14 days; assay type: organism-based; conditions: in vivo
[24] = Antitumor activity against human PC3 cells xenografted in nude mouse assessed as tumor growth inhibition at 40 mg/kg,iv administered every 2 days for 5 doses measured on day 28 to 31 relative to control; assay type: functional, PC-3
[25] = Antitumor activity against human H460 cells xenografted in nude mouse assessed as tumor growth inhibition at 30 mg/kg,iv qd administered for 6 days measured on day 15 relative to control; assay type: functional, NCI-H460
[26] = Antitumor activity against human PC3 cells xenografted in nude mouse assessed as tumor growth inhibition at 40 mg/kg,iv administered every 2 days for 5 doses measured on day 38 relative to control; assay type: functional; conditions: PC-3, iv, read-out: TGI
[27] = Antitumor activity against human H460 cells xenografted in nude mouse assessed as tumor growth inhibition at 30 mg/kg,iv qd administered for 6 days measured on day 37 relative to control; assay type: functional; conditions: NCI-H460, iv, read-out: TGI
Mus musculus [28] = test: Toxicity in nude mouse xenografted with human PC3 cells assessed as body weight loss at 40 mg/kg,iv administered every 2 days for 5 doses measured on day 13 relative to control; assay type: organism-based, PC-3; parameters: dose 40 mg/kg; conditions: in vivo, 48 h
Mus musculus [29] = test: Toxicity in nude mouse xenografted with human H460 cells assessed as body weight loss at 30 mg/kg,iv qd administered for 6 days measured on day 15 relative to control; assay type: organism-based; parameters: dose 30 mg/kg; conditions: in vivo, 144 h
Mus musculus [30] = test: Toxicity in nude mouse xenografted with human PC3 cells assessed as change in body weight at 40 mg/kg,iv administered every 2 days for 5 doses measured on day 38 relative to control; assay type: organism-based, PC-3; parameters: dose 40 mg/kg; conditions: in vivo, 48 h
Mus musculus [31] = test: Toxicity in nude mouse xenografted with human H460 cells assessed as body weight loss at 30 mg/kg,iv qd administered for 6 days measured on day 37 relative to control; assay type: organism-based; parameters: dose 30 mg/kg; conditions: in vivo, 144 h
NCI-H460 = test: Antitumor activity against human H460 cells xenografted in nude mouse assessed as survival at 30 mg/kg,iv qd administered for 6 days; assay type: functional, organism-based; parameters: dose 30 mg/kg

Row | Structure (SMILES) | IC50 (CCRF-CEM [1]) [µM] | IC50 [2] [µM] | IC50 (HT-29) [µM] | IC50 [3] [µM] | IC50 [4] [µM] | IC50 [5] [µM] | IC50 [6] [µM] | IC50 [7] [µM] | IC50 (CCRF-CEM [16]) [µM] | Ratio IC50 (CCRF-CEM [17]) | further results
1 | O=C(CCN1CCCCC1)Nc1ccc(NC(=O)Nc2ccc(N(CCCl)CCCl)cc2)cc1 | 6.2 | 2.28 | 12.3 | 1.58 | 3.03 | 2.41 | 2.41 | 6.5 | – | – | –
2 | O=c1[nH]cc(F)c(=O)[nH]1 [FLUOROURACIL] | – | – | 24.9 | – | – | – | 11.6 | 29.1 | – | – | –
3 | CCc1c2c(nc3ccc(OC(=O)N4CCC(N5CCCCC5)CC4)cc13)-c1cc3c(c(=O)n1C2)COC(=O)[C@]3(O)CC [IRINOTECAN] | – | – | 82.8 | – | – | – | 7.53 | 25.1 | – | – | %max [8]: 92%; %max [9]: 90%; inhibition in vivo at 30 mg/kg [10]: 90%; inhibition in vivo at 30 mg/kg [11]: 85%; body weight change relative to control (Mus musculus [12]): -3%; %max (Mus musculus [13]): 0%; Activity (Mus musculus [14]): 8%; Activity (Mus musculus [15]): 8%; Activity (HCT-116): Active; Activity (H3347): Active
4 | CCN(CC)CCC(=O)Nc1ccc(NC(=O)Nc2ccc(N(CCCl)CCCl)cc2)cc1 | 8.27 | 2.47 | 19.3 | 1.83 | 10.3 | 3.08 | 1.03 | 7.82 | 0.3 | 27.57 | –
5 | O=C(CCN1CCCC1)Nc1ccc(NC(=O)Nc2ccc(N(CCCl)CCCl)cc2)cc1 | 17.1 | 3.48 | 14.1 | 1.03 | 6.43 | 2.87 | 3.68 | 13.9 | 0.28 | 61.14 | –
6 | CN(C)CCC(=O)Nc1ccc(NC(=O)Nc2ccc(N(CCCl)CCCl)cc2)cc1 | – | – | 23.6 | – | – | – | 2.86 | 9.84 | – | – | –
7 | O=C(CCN1CCOCC1)Nc1cccc(NC(=O)Nc2ccc(N(CCCl)CCCl)cc2)c1 | 4.84 | 35.5 | – | 38.5 | 15.9 | 16.8 | – | – | 3.1 | 1.56 | –
8 | O=C(CCN1CCC(N2CCCCC2)CC1)Nc1cccc(NC(=O)Nc2ccc(N(CCCl)CCCl)cc2)c1 | 1.53 | 22.1 | – | 14.2 | 11 | 15.7 | – | – | 1.63 | 0.94 | –
9 | O=C(CN1CCCCC1)Nc1ccc(NC(=O)Nc2ccc(N(CCCl)CCCl)cc2)cc1 | 1.45 | 2.24 | 11.8 | 1.05 | 2.52 | 0.99 | 1.16 | 4.53 | 0.31 | 4.68 | –
10 | O=C(Nc1ccc(N(CCCl)CCCl)cc1)Nc1cccc(C(=O)NCCN2CCCC2)c1 | 126 | 6.54 | – | 34.1 | 18.7 | 4.9 | – | – | 0.53 | 238.42 | –
11 | CN(C)CC(=O)Nc1ccc(NC(=O)Nc2ccc(N(CCCl)CCCl)cc2)cc1 | 1.34 | 7.33 | 20.1 | 1.21 | 5.36 | 0.85 | 1.53 | 5.76 | 0.29 | 4.62 | %max [18]: 72%; inhibition in vivo at 30 mg/kg [19]: 51%; body weight change relative to control (Mus musculus [12]): -3%; Activity (Mus musculus [20]): 3%; Activity (HCT-116): Active; Activity [21]: Dose-dependent effect
12 | O=C(Nc1ccc(C(=O)NCCN2CCCC2)cc1)Nc1ccc(N(CCCl)CCCl)cc1 | 133 | 4.53 | – | 17.8 | 18.5 | 6.48 | – | – | 0.56 | 237.2 | –
13 | CN(C)CCNC(=O)c1cccc(NC(=O)Nc2ccc(N(CCCl)CCCl)cc2)c1 | 1.05 | 17.6 | – | 38.3 | 14.8 | 4.85 | – | – | – | 0.85 | MTD [22]: 30 mg/kg; LD50 at 336 h [23]: 76 mg/kg; %max [8]: 81%; %max [24]: 94%; %max [25]: 17%; inhibition in vivo at 30 mg/kg [11]: 79%; inhibition in vivo at 40 mg/kg [26]: 89%; inhibition in vivo at 30 mg/kg [27]: 8%; body weight change relative to control (Mus musculus [12]): -7%; %max (Mus musculus [28]): -16%; %max (Mus musculus [29]): -16%; Activity (Mus musculus [14]): 0%; Activity (Mus musculus [30]): -2%; Activity (Mus musculus [31]): -6%; Activity (HCT-116): Active; Activity (NCI-H460): Active
14 | O=C(CCN1CCOCC1)Nc1ccc(NC(=O)Nc2ccc(N(CCCl)CCCl)cc2)cc1 | 23.4 | 9.74 | – | 3.95 | 15.2 | 7.02 | – | – | 1.06 | 22.09 | –
15 | O=C(CCN1CCCC1)Nc1cccc(NC(=O)Nc2ccc(N(CCCl)CCCl)cc2)c1 | 27.1 | 10.3 | – | 9.84 | 4.33 | 5.11 | – | – | 0.67 | 40.42 | –
16 | O=C(CN1CCCC1)Nc1ccc(NC(=O)Nc2ccc(N(CCCl)CCCl)cc2)cc1 | 2 | 3.52 | 12.3 | 0.95 | 3.41 | 1.33 | 1.53 | 4.37 | 0.26 | 7.69 | –
17 | O=C(CN1CCC(N2CCCCC2)CC1)Nc1cccc(NC(=O)Nc2ccc(N(CCCl)CCCl)cc2)c1 | 1.81 | 25.9 | – | 12.3 | 12.8 | 6.15 | – | – | 30.4 | 0.06 | –
18 | O=C(CN1CCC(N2CCCCC2)CC1)Nc1ccc(NC(=O)Nc2ccc(N(CCCl)CCCl)cc2)cc1 | 52.2 | 7.24 | – | 14.9 | 14.4 | 4.24 | – | – | 1.14 | 45.8 | –
